Reference: patent publication US9738884B2, “Therapeutic agent for epithelial and endothelial injury” (NIHON UNIVERSITY, priority 2012, dated 2017)

Tested on: pulmonary edema model mice
Test: LPS-induced pulmonary edema model mice, lung weight/body weight (Example 10, Experiment 1)
Type: in vivo
Settings: 350 ng/body weight (g) intravenous, three hours after LPS 100 μg/body weight (g) intravenous
Text: FIG. 10 is a graph showing the results of Experiment 1 in Example 10 of the present application, namely, the results regarding therapeutic effects on pulmonary edema (the effect of reducing the amount of lung water). In the graph, “Control” indicates normal mice, “LPS” indicates an “LPS (lipopolysaccharide)+control peptide (SEQ ID NO: 26)” administration group, and “LPS/Peptide” indicates an “LPS (lipopolysaccharide)+therapeutic peptide (SEQ ID NO: 25)” administration group. In addition, the numerical value of the vertical axis in the graph indicates the ratio of the weight (g) of lung to the body weight (g) of each mouse (lung weight (g)/body weight (g)).
The therapeutic effects of the peptide of the present invention on model mice with pulmonary edema, which were caused by septicemia, disseminated intravascular coagulation syndrome (DIC) or acute respiratory distress syndrome (ARDS), were confirmed. […]
A comparison experiment was carried out on a normal mouse group (healthy mice), an “LPS (lipopolysaccharide; endotoxin)+control peptide (SEQ ID NO: 26)” administration group, and an “LPS+therapeutic peptide (SEQ ID NO: 25)” administration group (7 mice/each group). […] Thereafter, the lung was removed from the mice in each group, and the weight of each lung was measured. The ratio of the weight (g) of the lung to the body weight (g) (lung weight (g)/body weight (g)) was calculated.

AETVFSNMDYENSTEAVFIQDDITKKKKKK [SEQ ID NO: 25]
reduction of the LPS-increased amount of lung weight: 72%
